Measured values as given in PubChem BioAssay (NCI).
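1) Cells in 96-well plates. 2) Compound, 48 h, 5 concentrations. 3) Linear interpolation between surrounding doses. 4) Unreached endpoint = highest concentration. TGI is the concentration that stops growth completely.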

Legend:
Assay in all cases: inhibition of tumour cell growth, NCI panel, 48 h
OVCAR-4 ovarian = test system: OVCAR-4 ovarian
786-0 renal = test system: 786-0 renal
SR leukemia = test system: SR leukemia
CAKI-1 renal = test system: CAKI-1 renal
SF-539 CNS = test system: SF-539 CNS
DMS 273 small cell lung = test system: DMS 273 small cell lung
KM20L2 colon = test system: KM20L2 colon
K-562 leukemia = test system: K-562 leukemia
NCI-H522 lung = test system: NCI-H522 lung
UO-31 renal = test system: UO-31 renal
MALME-3M melanoma = test system: MALME-3M melanoma
SK-MEL-2 melanoma = test system: SK-MEL-2 melanoma
SNB-75 CNS = test system: SNB-75 CNS
SW-620 colon = test system: SW-620 colon
HCC-2998 colon = test system: HCC-2998 colon
SK-MEL-5 melanoma = test system: SK-MEL-5 melanoma
SNB-78 CNS = test system: SNB-78 CNS
DLD-1 colon = test system: DLD-1 colon
SF-268 CNS = test system: SF-268 CNS
LOX IMVI melanoma = test system: LOX IMVI melanoma
IGROV1 ovarian = test system: IGROV1 ovarian
OVCAR-3 ovarian = test system: OVCAR-3 ovarian
HOP-62 NSCLC = test system: HOP-62 NSCLC
TK-10 renal = test system: TK-10 renal
NCI-H460 lung = test system: NCI-H460 lung
ACHN renal = test system: ACHN renal
SNB-19 CNS = test system: SNB-19 CNS
U251 CNS = test system: U251 CNS
COLO 205 colon = test system: COLO 205 colon
M14 melanoma = test system: M14 melanoma
MOLT-4 leukemia = test system: MOLT-4 leukemia
HCT-15 colon = test system: HCT-15 colon
M19-MEL melanoma = test system: M19-MEL melanoma
NCI-H226 lung = test system: NCI-H226 lung
SK-MEL-28 melanoma = test system: SK-MEL-28 melanoma
RXF 393 renal = test system: RXF 393 renal
NCI-H23 lung = test system: NCI-H23 lung
SF-295 CNS = test system: SF-295 CNS
A549 NSCLC = test system: A549 NSCLC
DMS 114 small cell lung = test system: DMS 114 small cell lung
OVCAR-8 ovarian = test system: OVCAR-8 ovarian
UACC-62 melanoma = test system: UACC-62 melanoma
SN12C renal = test system: SN12C renal
HCT-116 colon = test system: HCT-116 colon
LXFL 529 NSCLC = test system: LXFL 529 NSCLC
EKVX NSCLC = test system: EKVX NSCLC
SK-OV-3 ovarian = test system: SK-OV-3 ovarian
A498 renal = test system: A498 renal
OVCAR-5 ovarian = test system: OVCAR-5 ovarian
CCRF-CEM leukemia = test system: CCRF-CEM leukemia
HL-60(TB) leukemia = test system: HL-60(TB) leukemia
HOP-18 NSCLC = test system: HOP-18 NSCLC
UACC-257 melanoma = test system: UACC-257 melanoma
XF 498 CNS = test system: XF 498 CNS
HOP-92 NSCLC = test system: HOP-92 NSCLC
KM12 colon = test system: KM12 colon
HT29 colon = test system: HT29 colon

## CCOc1ccccc1Nc1nc(C)c(C(=O)CC(=O)C(=O)Nc2ccccc2)s1
OVCAR-4 ovarian
  TGI: > 100 µM
786-0 renal
  TGI: > 100 µM
SR leukemia
  TGI: > 100 µM
CAKI-1 renal
  TGI: > 100 µM
SF-539 CNS
  TGI: > 100 µM
DMS 273 small cell lung
  TGI: > 100 µM
KM20L2 colon
  TGI: > 100 µM
K-562 leukemia
  TGI: > 100 µM
NCI-H522 lung
  TGI: 84.8 µM
UO-31 renal
  TGI: > 100 µM
MALME-3M melanoma
  TGI: > 100 µM
SK-MEL-2 melanoma
  TGI: > 100 µM
SNB-75 CNS
  TGI: 88.6 µM
SW-620 colon
  TGI: > 100 µM
HCC-2998 colon
  TGI: > 100 µM
SK-MEL-5 melanoma
  TGI: > 100 µM
SNB-78 CNS
  TGI: > 100 µM
DLD-1 colon
  TGI: > 100 µM
SF-268 CNS
  TGI: > 100 µM
LOX IMVI melanoma
  TGI: > 100 µM
IGROV1 ovarian
  TGI: > 100 µM
OVCAR-3 ovarian
  TGI: 63.3 µM
HOP-62 NSCLC
  TGI: > 100 µM
TK-10 renal
  TGI: > 100 µM
NCI-H460 lung
  TGI: > 100 µM
ACHN renal
  TGI: > 100 µM
SNB-19 CNS
  TGI: > 100 µM
U251 CNS
  TGI: > 100 µM
COLO 205 colon
  TGI: > 100 µM
M14 melanoma
  TGI: > 100 µM
MOLT-4 leukemia
  TGI: 78.3 µM
HCT-15 colon
  TGI: > 100 µM
M19-MEL melanoma
  TGI: > 100 µM
NCI-H226 lung
  TGI: > 100 µM
SK-MEL-28 melanoma
  TGI: > 100 µM
RXF 393 renal
  TGI: > 100 µM
NCI-H23 lung
  TGI: > 100 µM
SF-295 CNS
  TGI: > 100 µM
A549 NSCLC
  TGI: > 100 µM
DMS 114 small cell lung
  TGI: > 100 µM
OVCAR-8 ovarian
  TGI: > 100 µM
UACC-62 melanoma
  TGI: > 100 µM
SN12C renal
  TGI: > 100 µM
HCT-116 colon
  TGI: > 100 µM
LXFL 529 NSCLC
  TGI: > 100 µM
EKVX NSCLC
  TGI: > 100 µM
SK-OV-3 ovarian
  TGI: > 100 µM
A498 renal
  TGI: > 100 µM
OVCAR-5 ovarian
  TGI: > 100 µM
CCRF-CEM leukemia
  TGI: > 100 µM
HL-60(TB) leukemia
  TGI: 58.1 µM
HOP-18 NSCLC
  TGI: > 100 µM
UACC-257 melanoma
  TGI: > 100 µM
XF 498 CNS
  TGI: > 100 µM
HOP-92 NSCLC
  TGI: > 100 µM
KM12 colon
  TGI: > 100 µM
HT29 colon
  TGI: > 100 µM
